Assay results from ChEMBL document CHEMBL5303573, “Mapping human microbiome drug metabolism by gut bacteria and their genes” (Nature, 2019).

How the values were obtained:
[1] = The drug is tested on Bacteroides coprophilus strain: DSM18228 for biotransformation. The drug concentrations were measured before and after a 12-h incubation by liquid-chromatography-coupled mass spectrometry (LC–MS); settings: 2 µM
[2] = The drug is tested on Bacteroides finegoldii strain: DSM17565 for biotransformation. The drug concentrations were measured before and after a 12-h incubation by liquid-chromatography-coupled mass spectrometry (LC–MS); settings: 2 µM
[3] = The drug is tested on Bacteroides fragilis strain: HMW610 for biotransformation. The drug concentrations were measured before and after a 12-h incubation by liquid-chromatography-coupled mass spectrometry (LC–MS); settings: 2 µM
[4] = The drug is tested on Bacteroides ovatus strain: ATCC8483 for biotransformation. The drug concentrations were measured before and after a 12-h incubation by liquid-chromatography-coupled mass spectrometry (LC–MS); settings: 2 µM
[5] = The drug is tested on Bacteroides sp. WH2 strain: WH2 for biotransformation. The drug concentrations were measured before and after a 12-h incubation by liquid-chromatography-coupled mass spectrometry (LC–MS); settings: bacteroides sp. wh2, 12 h, 2 µM
[6] = The drug is tested on Odoribacter splanchnicus strain: fecal isolate for biotransformation. The drug concentrations were measured before and after a 12-h incubation by liquid-chromatography-coupled mass spectrometry (LC–MS); settings: 2 µM
[7] = The drug is tested on Anaerococcus hydrogenalis strain: DSM7454 for biotransformation. The drug concentrations were measured before and after a 12-h incubation by liquid-chromatography-coupled mass spectrometry (LC–MS); settings: 2 µM
[8] = The drug is tested on Clostridium asparagiforme strain: DSM15981 for biotransformation. The drug concentrations were measured before and after a 12-h incubation by liquid-chromatography-coupled mass spectrometry (LC–MS); format: ADME; parameters: dose 2 uM, timepoint 0 vs 12 hours; settings: enterocloster asparagiformis, 2 µM
[9] = The drug is tested on Clostridium sp. strain: fecal isolate for biotransformation. The drug concentrations were measured before and after a 12-h incubation by liquid-chromatography-coupled mass spectrometry (LC–MS); settings: 2 µM
[10] = The drug is tested on Clostridium sporogenes strain: ATCC15579 for biotransformation. The drug concentrations were measured before and after a 12-h incubation by liquid-chromatography-coupled mass spectrometry (LC–MS); settings: 2 µM
[11] = The drug is tested on Dorea formicigenerans strain: ATCC27755 for biotransformation. The drug concentrations were measured before and after a 12-h incubation by liquid-chromatography-coupled mass spectrometry (LC–MS); settings: 2 µM
[12] = The drug is tested on Eubacterium hallii strain: DSM3353 for biotransformation. The drug concentrations were measured before and after a 12-h incubation by liquid-chromatography-coupled mass spectrometry (LC–MS); settings: anaerobutyricum hallii, 2 µM
[13] = bifidobacterium adolescentis, 12 h, 2 µM
Description: The drug is tested on Bifidobacterium adolescentis strain: ATCC 15703 for biotransformation. The drug concentrations were measured before and after a 12-h incubation by liquid-chromatography-coupled mass spectrometry (LC–MS)

[14] = bacteroides eggerthii, 12 h, 2 µM
Description: The drug is tested on Bacteroides eggerthii strain: DSM20697 for biotransformation. The drug concentrations were measured before and after a 12-h incubation by liquid-chromatography-coupled mass spectrometry (LC–MS)

[15] = bacteroides fragilis, 12 h, 2 µM
Description: The drug is tested on Bacteroides fragilis strain: NCTC 9343 for biotransformation. The drug concentrations were measured before and after a 12-h incubation by liquid-chromatography-coupled mass spectrometry (LC–MS)

[16] = bacteroides fragilis, 12 h, 2 µM; remark: listed apart in the source
Description: The drug is tested on Bacteroides fragilis strain: DS-208 for biotransformation. The drug concentrations were measured before and after a 12-h incubation by liquid-chromatography-coupled mass spectrometry (LC–MS)

[17] = bacteroides thetaiotaomicron, 12 h, 2 µM
Description: The drug is tested on Bacteroides thetaiotaomicron strain: 3731 for biotransformation. The drug concentrations were measured before and after a 12-h incubation by liquid-chromatography-coupled mass spectrometry (LC–MS)

[18] = segatella copri, 12 h, 2 µM
Description: The drug is tested on Prevotella copri strain: DSM18205 for biotransformation. The drug concentrations were measured before and after a 12-h incubation by liquid-chromatography-coupled mass spectrometry (LC–MS)

[19] = roseburia intestinalis, 12 h, 2 µM
Description: The drug is tested on Roseburia intestinalis strain: L1-82 for biotransformation. The drug concentrations were measured before and after a 12-h incubation by liquid-chromatography-coupled mass spectrometry (LC–MS)

[20] = akkermansia muciniphila, 12 h, 2 µM
Description: The drug is tested on Akkermansia muciniphila strain: ATCC BAA-835 for biotransformation. The drug concentrations were measured before and after a 12-h incubation by liquid-chromatography-coupled mass spectrometry (LC–MS)

Bacterial Biotransformation [1]	Bacterial Biotransformation [2]	Bacterial Biotransformation [3]	Bacterial Biotransformation [4]	Bacterial Biotransformation [5]	Bacterial Biotransformation [6]	Bacterial Biotransformation [7]	Bacterial Biotransformation [8]	Bacterial Biotransformation [9]	Bacterial Biotransformation [10]	Bacterial Biotransformation [11]	Bacterial Biotransformation [12]	Bacterial Biotransformation [13]	Bacterial Biotransformation [14]	Bacterial Biotransformation [15]	Bacterial Biotransformation [16]	Bacterial Biotransformation [17]	Bacterial Biotransformation [18]	Bacterial Biotransformation [19]	Bacterial Biotransformation [20]	Compound
Compound metabolized	Compound NOT metabolized	Compound metabolized	Compound metabolized	Compound NOT metabolized	Compound metabolized	Compound NOT metabolized	Compound NOT metabolized	Compound metabolized	Compound metabolized	Compound NOT metabolized	Compound NOT metabolized	Compound NOT metabolized	Compound metabolized	Compound metabolized	Compound metabolized	Compound metabolized	Compound NOT metabolized	Compound NOT metabolized	Compound NOT metabolized	CC(=O)O[C@]1(C(C)=O)CC[C@H]2[C@@H]3C=C(Cl)C4=CC(=O)[C@@H]5C[C@@H]5[C@]4(C)[C@H]3CC[C@@]21C [CYPROTERONE ACETATE]
Compound metabolized		Compound metabolized	Compound metabolized	Compound NOT metabolized	Compound metabolized	Compound NOT metabolized	Compound NOT metabolized	Compound metabolized	Compound NOT metabolized	Compound NOT metabolized	Compound NOT metabolized	Compound NOT metabolized	Compound metabolized	Compound NOT metabolized	Compound metabolized	Compound NOT metabolized	Compound NOT metabolized	Compound NOT metabolized	Compound NOT metabolized	C[C@H]1O[C@@H](O[C@H]2[C@@H](O)C[C@H](O[C@H]3[C@@H](O)C[C@H](O[C@H]4CC[C@@]5(C)[C@H](CC[C@@H]6[C@@H]5C[C@@H](O)[C@]5(C)[C@@H](C7=CC(=O)OC7)CC[C@]65O)C4)O[C@@H]3C)O[C@@H]2C)C[C@H](O)[C@@H]1O [DIGOXIN]
Compound NOT metabolized	Compound NOT metabolized	Compound NOT metabolized	Compound metabolized	Compound NOT metabolized	Compound metabolized	Compound NOT metabolized	Compound NOT metabolized	Compound metabolized	Compound NOT metabolized	Compound NOT metabolized	Compound NOT metabolized	Compound NOT metabolized	Compound NOT metabolized	Compound NOT metabolized	Compound NOT metabolized	Compound NOT metabolized		Compound NOT metabolized	Compound NOT metabolized	CCN(CC)C(C)CN1c2ccccc2Sc2ccccc21 (centres undefined) [ETHOPROPAZINE]
Compound metabolized	Compound NOT metabolized	Compound metabolized	Compound metabolized	Compound NOT metabolized	Compound NOT metabolized	Compound NOT metabolized	Compound NOT metabolized	Compound NOT metabolized	Compound NOT metabolized	Compound NOT metabolized	Compound NOT metabolized	Compound NOT metabolized		Compound metabolized	Compound metabolized	Compound metabolized	Compound metabolized	Compound NOT metabolized	Compound NOT metabolized	O=C1NCC2(CCN(CCc3ccccc3)CC2)O1 [FENSPIRIDE]
Compound NOT metabolized	Compound NOT metabolized	Compound NOT metabolized	Compound NOT metabolized		Compound NOT metabolized		Compound NOT metabolized	Compound NOT metabolized	Compound NOT metabolized	Compound NOT metabolized	Compound NOT metabolized	Compound NOT metabolized	Compound NOT metabolized	Compound NOT metabolized	Compound NOT metabolized	Compound NOT metabolized	Compound NOT metabolized	Compound NOT metabolized	Compound NOT metabolized	COC(=O)C1=C(C)NC(C)=C(C(=O)OC(C)C)C1c1cccc2nonc12 (centres undefined) [ISRADIPINE]

Compound	Bacterial Biotransformation [1]	Bacterial Biotransformation [2]	Bacterial Biotransformation [3]	Bacterial Biotransformation [4]	Bacterial Biotransformation [5]	Bacterial Biotransformation [6]	Bacterial Biotransformation [7]	Bacterial Biotransformation [8]	Bacterial Biotransformation [9]	Bacterial Biotransformation [10]	Bacterial Biotransformation [11]	Bacterial Biotransformation [12]	Bacterial Biotransformation [13]	Bacterial Biotransformation [14]	Bacterial Biotransformation [15]	Bacterial Biotransformation [16]	Bacterial Biotransformation [17]	Bacterial Biotransformation [18]	Bacterial Biotransformation [19]	Bacterial Biotransformation [20]
CCN(CC)C(=O)C1(c2ccccc2)CC1CN (centres undefined)	Compound NOT metabolized	Compound NOT metabolized	Compound NOT metabolized	Compound NOT metabolized	Compound NOT metabolized	Compound NOT metabolized	Compound NOT metabolized	Compound NOT metabolized	Compound NOT metabolized	Compound NOT metabolized	Compound NOT metabolized	Compound NOT metabolized	Compound NOT metabolized	Compound NOT metabolized	Compound NOT metabolized	Compound NOT metabolized	Compound NOT metabolized	Compound NOT metabolized	Compound NOT metabolized	Compound NOT metabolized
CC1OC(OC2C(O)CC(OC3C(O)CC(OC4CCC5(C)C(CCC6C5CCC5(C)C(C7=CC(=O)OC7)CCC65O)C4)OC3C)OC2C)CC(O)C1O (centres undefined)	Compound metabolized	Compound NOT metabolized	Compound metabolized	Compound metabolized	Compound NOT metabolized	Compound metabolized	Compound NOT metabolized	Compound NOT metabolized	Compound metabolized	Compound metabolized	Compound NOT metabolized	Compound NOT metabolized	Compound NOT metabolized	Compound metabolized	Compound NOT metabolized	Compound metabolized	Compound NOT metabolized	Compound metabolized	Compound NOT metabolized	Compound NOT metabolized
CC(=O)CCCCn1c(=O)c2c(ncn2C)n(C)c1=O [PENTOXIFYLLINE]	Compound NOT metabolized		Compound NOT metabolized	Compound NOT metabolized	Compound NOT metabolized	Compound NOT metabolized	Compound NOT metabolized	Compound NOT metabolized	Compound NOT metabolized	Compound NOT metabolized	Compound NOT metabolized	Compound NOT metabolized	Compound NOT metabolized	Compound NOT metabolized	Compound NOT metabolized	Compound NOT metabolized	Compound NOT metabolized	Compound NOT metabolized	Compound NOT metabolized	Compound NOT metabolized
